Measured values published in patent US12258397B2 (Seattle Children's Hospital, priority 2014, dated 2025).
“And” between values parts separate entries of the source, which are not always exact repeats. Equal values may be shown once.

Legend:
[1] = system: cells transfected with GFP:SB; assay: GFP expression in cells transfected with GFP:SB (SB100X DNA or RNA) under MTX; format: cell-based; settings: cells transfected with 5 ug of GFP:SB; 50 uM and 100 uM MTX tested
Procedure: Cells were electroporated with SB100X (DNA or RNA) or transposons carrying genes for GFP, CARS, or GFP/mCherry/BFP. FIG. 20A relates to lymphocytes; FIG. 20B relates to single cells; FIG. 20C relates to live cells; FIG. 20D relates to GFP; FIG. 20E relates to a time-line.
As shown in the figure are several scattergrams of the cells that are transfected with GFP gene carrying transposons. Several samples of cells are transfected with DNA comprising a gene for GFP expression (2.5 ug and 5 ug), mcGFP only, and RNA (1 ug and 3 ug).
FIGS. 24A-24B relate to expression of GFP in cells transfected with GFP:SB. […] FIG. 24B relates to the experiment was performed using RNA, however, DNA has a higher efficiency for leading to expression of the protein.

H9 cells [2] = assay: MTX selection and transgene persistence in H9 cells stably transfected with T3/GFP-T2A-DHFRdm transposon, flow cytometry; format: cell-based, human
Procedure: (§1) H9 cells were cultured in DMEM with 10% FBS. The optimized nucleofection protocol for H9 cells (Lonza) was followed (program X-001, Nucleofector Kit V). Per nucleofection, 1×10^6 cells were used with varying amounts of MC DNA. Cells were grown for a week after nucleofection to achieve stable transfection.
(§2) Live cells were selected based on propidium iodide exclusion by adding propidium iodide in the flow cytometry buffer to 2 μg/ml. Flow cytometry analysis was carried out on a MACSQuant Analyzer (Miltenyi Biotec) and LSRII (BD Biosciences). Collected data was analyzed with FlowJo software. Appropriate negative controls (untransfected H9 cells with and without propidium iodide staining, as well as cells transfected with single genes for GFP, BFP, and mCherry) were used for compensation and gating. A Becton Dickinson FACSAria II was used for cell sorting. Part of flow cytometry work was conducted at the UW Immunology Flow Cytometry Facility.

H9 cells [3] = assay: Multiplexed gene integration of three fluorescent protein transposons with MTX step selection, flow cytometry; format: cell-based, human; settings: for cells expressing triple transgenes: 200 nM MTX 1 week
Procedure: as §1, §2
H9 cells were nucleofected with three minicircles containing three different reporter genes (maxGFP, mCherry, and BFP) in transposon cassettes and the SB100X transposase minicircle. Stably-transduced cells were then selected for 7 days with 200 nM and cell population assessed by flow cytometry analysis. […] Initial transfection efficiency assessed 24 hours after nucleofection, was 68% (FIG. 6A). The stably transduced population was 37±1.4%, reflecting 54% integration efficiency. Of this population, 19±0.6% expressed two or three different fluorescent proteins. […] Cell viability rebounded to ˜70% during the second round of selection due to further selection for overexpression of the DHFRdm gene.

H9 cells [4] = assay: Transposon copy number by qPCR in MTX-selected H9 cells; format: cell-based, human
Procedure: Genomic DNA was extracted with Puregene Kit A according to the manufacturer's instructions (Qiagen), and qPCR was performed using a 7300 Real-Time PCR System (Applied Biosystems) using Universal SYBR Green Supermix (BioRad). Primers for qPCR were designed using Primer3 software: […]
MaxGFP primers are specific for the maxGFP gene in the transposon. Standard curves were generated using genomic DNA of a H9 clone with a single insertion of transposon (“gold standard”) obtained by limiting dilution method. Copy number was calculated using the […] (Schmittgen, T. D. and Livak, K. J. (2008), incorporated in its entirety herein). Characterization of SBTS Integration Distribution.
Plates were incubated for 2-3 weeks, after which clonal populations were moved to larger plates and expanded. GFP expression was confirmed by flow cytometry. Relative RT-qPCR analysis was performed using DNA of 60 individual clones in order to determine transposon copy number.
First, a “gold standard” clone with a single copy of integrated transposon was generated by limiting dilution method. […] A trend of increasing average transposon copy number with increasing selection pressure was observed. […] Statistical difference was assessed by Student's t-test.
Sixty clones were generated by limiting dilution method, GFP expression confirmed by flow cytometry, genomic DNA isolated, and the number of GFP genes per haploid genome analyzed by RT-PCR. Most clones (˜65%) contained multiple copies of GFP.

[5] = 60 clones from population selected with 200 nM MTX

CN(Cc1cnc2nc(N)nc(N)c2n1)c1ccc(C(=O)N[C@@H](CCC(=O)O)C(=O)O)cc1 [MTX, methotrexate]
MTX concentration at which cells express GFP optimally [1]: 50 µM
decrease in mean GFP expression by 4 weeks post-MTX withdrawal (H9 cells [2]; 50 nM MTX selection): 28%
decrease in mean GFP expression by 4 weeks post-MTX withdrawal (H9 cells [2]; 100 nM MTX selection): 27%
GFP+ population four weeks post-MTX withdrawal (H9 cells [2]; 200 nM MTX for 2 weeks): 97%
decrease in mean GFP expression by 4 weeks post-MTX withdrawal (H9 cells [2]; 200 nM MTX selection): 21%
GFP+ population four weeks post-MTX withdrawal (H9 cells [2]; all populations (50, 100, 200 nM MTX for 2 weeks)): > 90%
GFP+ cells (H9 cells [2]; by 7 days post-selection, all conditions (50 to 200 nM MTX)): > 94%
cells expressing triple transgenes (H9 cells [3]; then 500 nM MTX additional week): 38.5±1.0%
cells expressing triple transgenes (H9 cells [3]; then 1000 nM MTX additional week): 53.1±0.3%
cell viability (H9 cells [3]; during the second round of selection): ~70%
cells expressing three transgene products (H9 cells [3]; two-step selection, two successive MTX selection rounds): 50%
average number of integration events in clones (H9 cells [4]; [5]): 1.8 and 1.78±0.69
clones containing multiple copies of GFP (H9 cells [4]; [5]): ~65%
average integration events (transposon copy number per human haploid genome) (H9 cells [4]; cell population selected with 200 nM MTX, RT-qPCR): 2.1±0.45
